Structures are written as SMILES.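 Five compound concentrations were applied to cells in 96-well plates for 48 hours; endpoints were derived by simple linear interpolation of the resulting dose-response curve. TGI denotes the concentration required for complete inhibition of growth.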

One assay deals with HCT-116 colon. Kind of assay: NCI-60 cell line screen, 48 h.
Consider `O=c1c2ccccc2sc2ccccc12`, for which the TGI was > 100 µM.
Still for that read-out and setting: then `Cc1cc(C)c(/C=C(\C(=C/c2c(C)cc(C)cc2C)[N+](=O)[O-])[N+](=O)[O-])c(C)c1`, with > 100 µM.
Still for that read-out and setting: next, `O=C1/C(=C/c2cccc([N+](=O)[O-])c2)Sc2scc(-c3ccc([N+](=O)[O-])cc3)[n+]21`: 34.9 µM.

For the next assay, the system named is TK-10 renal. Kind of assay: NCI-60 cell line screen, 48 h.
`COc1cc([N+](=O)[O-])c(OC)c2c(Nc3ccc(S(=O)(=O)O)c4cc(S(=O)(=O)O)cc(S(=O)(=O)O)c34)cc(C)nc12`: the TGI was > 100 µM.
On the same count and under the same terms, next, `O=c1c2ccccc2sc2ccccc12`: > 100 µM.
The same measure, in the same setting: then `Cc1cc(C)c(/C=C(\C(=C/c2c(C)cc(C)cc2C)[N+](=O)[O-])[N+](=O)[O-])c(C)c1`, with > 100 µM.

For another assay, the system named is K-562 leukemia. Kind of assay: NCI-60 cell line screen, 48 h.
Turning to `O=c1c2ccccc2sc2ccccc12`, the TGI was > 100 µM.
As to `Cc1cc(C)c(/C=C(\C(=C/c2c(C)cc(C)cc2C)[N+](=O)[O-])[N+](=O)[O-])c(C)c1`, the TGI was > 100 µM.

Another assay relates to IGROV1 ovarian. Description: NCI-60 cell line screen, 48 h.
In the case of `COc1cc([N+](=O)[O-])c(OC)c2c(Nc3ccc(S(=O)(=O)O)c4cc(S(=O)(=O)O)cc(S(=O)(=O)O)c34)cc(C)nc12`, the TGI is > 100 µM.
Same read-out and setting: then `O=c1c2ccccc2sc2ccccc12`, with > 100 µM.
For `Cc1cc(C)c(/C=C(\C(=C/c2c(C)cc(C)cc2C)[N+](=O)[O-])[N+](=O)[O-])c(C)c1`, the TGI is > 100 µM.
On the same count and under the same terms, next, `O=C1/C(=C/c2cccc([N+](=O)[O-])c2)Sc2scc(-c3ccc([N+](=O)[O-])cc3)[n+]21`: 53.6 µM.

The subject of another assay is NCI/ADR-RES ovarian. Description: NCI-60 cell line screen, 48 h.
`COc1cc([N+](=O)[O-])c(OC)c2c(Nc3ccc(S(=O)(=O)O)c4cc(S(=O)(=O)O)cc(S(=O)(=O)O)c34)cc(C)nc12`: the TGI was > 100 µM.
The same measure, in the same setting: then `O=c1c2ccccc2sc2ccccc12`, with > 100 µM.
With `O=C1/C(=C/c2cccc([N+](=O)[O-])c2)Sc2scc(-c3ccc([N+](=O)[O-])cc3)[n+]21`, the TGI was 89.2 µM.

A further assay deals with SW-620 colon. Kind of assay: NCI-60 cell line screen, 48 h.
With `COc1cc([N+](=O)[O-])c(OC)c2c(Nc3ccc(S(=O)(=O)O)c4cc(S(=O)(=O)O)cc(S(=O)(=O)O)c34)cc(C)nc12`, the TGI was > 100 µM.
On the same count and under the same terms, then `O=c1c2ccccc2sc2ccccc12`, with > 100 µM; and `Cc1cc(C)c(/C=C(\C(=C/c2c(C)cc(C)cc2C)[N+](=O)[O-])[N+](=O)[O-])c(C)c1`, with > 100 µM.
With `O=C1/C(=C/c2cccc([N+](=O)[O-])c2)Sc2scc(-c3ccc([N+](=O)[O-])cc3)[n+]21`, the TGI was > 100 µM.

In another assay the test system is HOP-92 NSCLC. Kind of assay: NCI-60 cell line screen, 48 h.
With `O=c1c2ccccc2sc2ccccc12`, the TGI is > 100 µM.
Still for that read-out and setting: next, `Cc1cc(C)c(/C=C(\C(=C/c2c(C)cc(C)cc2C)[N+](=O)[O-])[N+](=O)[O-])c(C)c1`: > 100 µM; `O=C1/C(=C/c2cccc([N+](=O)[O-])c2)Sc2scc(-c3ccc([N+](=O)[O-])cc3)[n+]21`: 72.3 µM.

The next assay relates to UACC-257 melanoma. Kind of assay: NCI-60 cell line screen, 48 h.
As for `COc1cc([N+](=O)[O-])c(OC)c2c(Nc3ccc(S(=O)(=O)O)c4cc(S(=O)(=O)O)cc(S(=O)(=O)O)c34)cc(C)nc12`, the TGI was > 100 µM.
Same read-out and setting: next, `O=c1c2ccccc2sc2ccccc12`: > 100 µM; `Cc1cc(C)c(/C=C(\C(=C/c2c(C)cc(C)cc2C)[N+](=O)[O-])[N+](=O)[O-])c(C)c1`: > 100 µM; `O=C1/C(=C/c2cccc([N+](=O)[O-])c2)Sc2scc(-c3ccc([N+](=O)[O-])cc3)[n+]21`: 69.8 µM.

For the next assay, the system named is SK-MEL-2 melanoma. Description: NCI-60 cell line screen, 48 h.
Turning to `COc1cc([N+](=O)[O-])c(OC)c2c(Nc3ccc(S(=O)(=O)O)c4cc(S(=O)(=O)O)cc(S(=O)(=O)O)c34)cc(C)nc12`, the TGI is > 100 µM.
Still for that read-out and setting: then `O=c1c2ccccc2sc2ccccc12`, with > 100 µM; and `Cc1cc(C)c(/C=C(\C(=C/c2c(C)cc(C)cc2C)[N+](=O)[O-])[N+](=O)[O-])c(C)c1`, with > 100 µM.
Still for that read-out and setting: then `O=C1/C(=C/c2cccc([N+](=O)[O-])c2)Sc2scc(-c3ccc([N+](=O)[O-])cc3)[n+]21`, with 70 µM.

The subject of another assay is PC-3 prostate. Kind of assay: NCI-60 cell line screen, 48 h.
In the case of `COc1cc([N+](=O)[O-])c(OC)c2c(Nc3ccc(S(=O)(=O)O)c4cc(S(=O)(=O)O)cc(S(=O)(=O)O)c34)cc(C)nc12`, the TGI was > 100 µM.
Same read-out and setting: then `O=c1c2ccccc2sc2ccccc12`, with > 100 µM; and `Cc1cc(C)c(/C=C(\C(=C/c2c(C)cc(C)cc2C)[N+](=O)[O-])[N+](=O)[O-])c(C)c1`, with > 100 µM.
The same measure, in the same setting: next, `O=C1/C(=C/c2cccc([N+](=O)[O-])c2)Sc2scc(-c3ccc([N+](=O)[O-])cc3)[n+]21`: > 100 µM.

The next assay has as its system SNB-19 CNS. Kind of assay: NCI-60 cell line screen, 48 h.
On to `O=c1c2ccccc2sc2ccccc12`, for which the TGI is > 100 µM.
On the same count and under the same terms, next, `Cc1cc(C)c(/C=C(\C(=C/c2c(C)cc(C)cc2C)[N+](=O)[O-])[N+](=O)[O-])c(C)c1`: > 100 µM.
Same read-out and setting: next, `O=C1/C(=C/c2cccc([N+](=O)[O-])c2)Sc2scc(-c3ccc([N+](=O)[O-])cc3)[n+]21`: 46.1 µM.

A further assay deals with SF-539 CNS. Description: NCI-60 cell line screen, 48 h.
On to `COc1cc([N+](=O)[O-])c(OC)c2c(Nc3ccc(S(=O)(=O)O)c4cc(S(=O)(=O)O)cc(S(=O)(=O)O)c34)cc(C)nc12`, for which the TGI was > 100 µM.
For `O=c1c2ccccc2sc2ccccc12`, the TGI was > 100 µM.
On the same count and under the same terms, then `Cc1cc(C)c(/C=C(\C(=C/c2c(C)cc(C)cc2C)[N+](=O)[O-])[N+](=O)[O-])c(C)c1`, with > 100 µM; and `O=C1/C(=C/c2cccc([N+](=O)[O-])c2)Sc2scc(-c3ccc([N+](=O)[O-])cc3)[n+]21`, with > 100 µM.

Another assay has as its system NCI-H226 lung. Description: NCI-60 cell line screen, 48 h.
For the compound `COc1cc([N+](=O)[O-])c(OC)c2c(Nc3ccc(S(=O)(=O)O)c4cc(S(=O)(=O)O)cc(S(=O)(=O)O)c34)cc(C)nc12`, the TGI is > 100 µM.
On the same count and under the same terms, next, `O=c1c2ccccc2sc2ccccc12`: > 100 µM.
On the same count and under the same terms, then `O=C1/C(=C/c2cccc([N+](=O)[O-])c2)Sc2scc(-c3ccc([N+](=O)[O-])cc3)[n+]21`, with > 100 µM.

Another assay relates to EKVX NSCLC. Kind of assay: NCI-60 cell line screen, 48 h.
Take `COc1cc([N+](=O)[O-])c(OC)c2c(Nc3ccc(S(=O)(=O)O)c4cc(S(=O)(=O)O)cc(S(=O)(=O)O)c34)cc(C)nc12`: the TGI was > 100 µM.
Same read-out and setting: then `O=c1c2ccccc2sc2ccccc12`, with > 100 µM.
Turning to `Cc1cc(C)c(/C=C(\C(=C/c2c(C)cc(C)cc2C)[N+](=O)[O-])[N+](=O)[O-])c(C)c1`, the TGI was > 100 µM.
On the same count and under the same terms, then `O=C1/C(=C/c2cccc([N+](=O)[O-])c2)Sc2scc(-c3ccc([N+](=O)[O-])cc3)[n+]21`, with 61.1 µM.

For another assay, the system named is OVCAR-4 ovarian. Description: NCI-60 cell line screen, 48 h.
In the case of `O=c1c2ccccc2sc2ccccc12`, the TGI was > 100 µM.
The same measure, in the same setting: then `Cc1cc(C)c(/C=C(\C(=C/c2c(C)cc(C)cc2C)[N+](=O)[O-])[N+](=O)[O-])c(C)c1`, with > 100 µM; and `O=C1/C(=C/c2cccc([N+](=O)[O-])c2)Sc2scc(-c3ccc([N+](=O)[O-])cc3)[n+]21`, with > 100 µM.

The values are drawn from PubChem BioAssay (NCI).
